pIC50: −log10 of the molar value.
Biological target: T1, human A3 receptor (Homo sapiens, UniProt P0DMS8)
T1 construct: expressed in transfected cells
T1 sequence (P0DMS8 1-318): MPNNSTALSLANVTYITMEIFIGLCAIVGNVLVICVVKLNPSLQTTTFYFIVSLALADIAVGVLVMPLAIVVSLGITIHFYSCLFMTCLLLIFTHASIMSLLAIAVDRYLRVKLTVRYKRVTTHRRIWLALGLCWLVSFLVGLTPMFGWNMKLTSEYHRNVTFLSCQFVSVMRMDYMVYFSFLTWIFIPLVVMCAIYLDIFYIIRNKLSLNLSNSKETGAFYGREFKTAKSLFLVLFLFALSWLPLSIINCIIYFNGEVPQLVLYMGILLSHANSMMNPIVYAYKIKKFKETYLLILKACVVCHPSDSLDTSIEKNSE
Assay: Radioligand displacement binding, [125I]AB-MECA, mammalian membranes
Details: [125I]AB-MECA 0.75 nM; 10 ug mammalian membranes; 60 minutes room temperature; read-out: IC50 hA3R

pIC50: 5.09
SMILES: O=c1[nH]c(=O)c2nc3ccccc3nc2[nH]1 [Alloxozine]
